# In patent US10690666B2, “Methods and compositions for modulating TH-GM cell function” (National University of Singapore, priority 2014, dated 2020):
# System: AIA mice
# Test: Antigen-induced arthritis (AIA) model
# Format: in vivo, mouse
# Description: FIGS. 25A-25E depict distinguishable effects of GM-CSF and TNF-α in mouse AIA. […] Data are representative of more than three independent experiments. Representative images of joint sections stained with H&E (FIG. 25C) or Safranin-O/Fast Green (FIG. 25D) at day 7 after arthritis induction as in FIG. 25C. Bars, 500 μm (FIG. 25C upper panels and FIG. 25D) or 100 μm (FIG. 25C lower panels). Arrow in upper panels (FIG. 25C) indicated bone destruction. In FIG. 25E, serum concentrations of GM-CSF, IFN-γ and TNF-α in Stat5^+/+ and Stat5−/− AIA mice were quantified by ELISA. Statistics of n>=8 per group were shown. *p<0.05, **p<0.01, ***p<0.001.
# FIGS. 28A-28G depicts STAT5-regulated GM-CSF-producing TH cells are crucial for AIA. Spleens and synovial tissues were collected from Stat5^+/+ and Stat5^−/− mice at day 7 after arthritis induction. (FIG. 28A) Splenic fractions of wild-type AIA mice (n=3) were stimulated under indicated conditions for 18 h. GM-CSF levels in supernatant were quantified by ELISA. (FIGS. 28B-28D) Intracellular staining and flow cytometry of GM-CSF, IL-17 and IFN-γ in splenic CD4^+CD44^hi effector T cells (FIG. 28B) or in synovial infiltrating CD4^+ T cells (FIGS. 28C and 28D) after restimulation for 4 h with PMA/Ionomycin in the presence of Golgiplug. Representative images and statistics of n=5 (FIG. 28B, right panels) or n=3 (FIG. 28D, right panels) per group were shown. Data represent two independent experiments. (FIG. 28E) Protein expression of several proinflammatory cytokines in synovial tissues was measured by ELISA. (FIGS. 28F and 28G) Representative images of joint sections stained with H&E (FIG. 28F) or Safranin-O/Fast Green (FIG. 28G) at day 7 after intraarticular injection of mBSA alone to the right knee joints and mBSA supplemented with GM-CSF to the left knee joints. Bars, 500, 50 or 200 μm as indicated. Data represent two independent experiments.*p<0.05, **p<0.01, p<0.05, **p<0.01, ***p<0.001; ns, not significant. “Splenocytes” represent the left-most bars in each group, “splenocytes depleted of CD4+ T cells” represent the middle bars in each group, and “CD4+ T cells” represent the right-most bars in each group.
# FIGS. 31A-31D depicts SAT5-induced GM-CSF expression mediates CD11b^+ cell accumulation in inflamed synovial tissues. (FIG. 31A) The frequencies of CD11b^+ cells in spleens of Stat5^+/+ and Stat5^−/− AIA mice were analyzed by flow cytometry. Statistics of n=3 per group (right panel) were shown. (FIG. 31B) Synovial tissues were harvested from Stat5^+/+ and Stat5^−/− mice at day 7 after arthritis induction, and dissociated into single cell suspensions. The percentage of CD11b^+ myeloid cells among CD45^+ fraction was analyzed by flow cytometry. Statistics of n=5 per group were shown in right panel. […]
# [1] = 100 ng intraarticular together with mBSA, day 7
substance,measurement,setting,value
GM-CSF: granulocyte macrophage colony-stimulating factor (ImmunoTools) given intraarticularly or added to cell cultures,cartilage depletion in Stat5−/− mice (Safranin-O/Fast Green),[1],severe cartilage depletion
same,synovial inflammation in Stat5−/− mice,[1],efficiently restored synovial inflammation
same,neutrophil accumulation in synovial compartments of STAT5-deficient mice,intraarticular administration during arthritis induction,efficiently restored neutrophil accumulation
same,synovial CD11b+ cell accumulation in STAT5-deficient mice,local administration during arthritis induction,partially restored
